Results reported in patent US7868026B2, “Therapeutic compounds” (Pfizer Inc., priority 2005, dated 2011).
Read-outs that look alike come from different tables or passages of the source.

How the values were obtained:
Assay type in all cases: biochemical
CYP3A4 [1] = target: T1, CYP3A4 (Homo sapiens, UniProt P08684); assay: Determination of compound Kiapp against recombinant CYP3A4 enzyme (BFC fluorescent substrate)
In short: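 Recombinant CYP3A4 (5.5 or 8 nM, with or without b5 depending on source) pre-incubated with inhibitor ≥30 min at room temperature in 100 mM sodium phosphate pH 7.0, 5 mM TCEP, 2% DMF. Reaction started with 200 uM NADPH and 5 uM BFC; initial fluorescence rates over 5 min fitted to Morrison tight-binding (non-partial) or Szedlacsek (partial) equations for Kiapp.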

CYP3A4 [2] = target: T1, CYP3A4; assay: Determination of IC50 against CYP3A4 by measurement of inhibition of testosterone metabolism (human liver microsomes, 6-β-OH-testosterone by LC-MS/MS); parameters: 0.1 mg/mL human liver microsomes; conditions: read-out: IC50 (Testo.)
In short: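 Human liver microsomes (0.1 mg/mL) incubated with 25 μM testosterone and 1 mM NADPH in 100 mM potassium phosphate, pH 7.4, for eight minutes. 6-β-OH-testosterone measured by LC-MS/MS in MRM mode against an internal standard and quantified from a metabolite standard curve.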

CYP3A4 [3] = target: T1, CYP3A4; assay: Determination of IC50 against CYP3A4 by measurement of inhibition of midazolam metabolism (human liver microsomes, 1-hydroxymidazolam by LC-MS/MS); parameters: 0.1 mg/mL human liver microsomes; conditions: 2 μM midazolam, 0.1 mg/mL human liver microsomes
In short: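 Human liver microsomes (0.1 mg/mL) incubated 8 min with 2 μM midazolam and 1 mM NADPH in 100 mM potassium phosphate, pH 7.4. 1-Hydroxymidazolam quantified by LC-MS/MS (MRM) as peak area ratio to internal standard against a metabolite standard curve.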

[4] = Baculo. enzyme preparation, read-out: Kiapp (BFC, Baculo.)
[5] = Super. enzyme preparation, read-out: Kiapp (BFC, Super.)

T1 sequence (P08684 whole entry): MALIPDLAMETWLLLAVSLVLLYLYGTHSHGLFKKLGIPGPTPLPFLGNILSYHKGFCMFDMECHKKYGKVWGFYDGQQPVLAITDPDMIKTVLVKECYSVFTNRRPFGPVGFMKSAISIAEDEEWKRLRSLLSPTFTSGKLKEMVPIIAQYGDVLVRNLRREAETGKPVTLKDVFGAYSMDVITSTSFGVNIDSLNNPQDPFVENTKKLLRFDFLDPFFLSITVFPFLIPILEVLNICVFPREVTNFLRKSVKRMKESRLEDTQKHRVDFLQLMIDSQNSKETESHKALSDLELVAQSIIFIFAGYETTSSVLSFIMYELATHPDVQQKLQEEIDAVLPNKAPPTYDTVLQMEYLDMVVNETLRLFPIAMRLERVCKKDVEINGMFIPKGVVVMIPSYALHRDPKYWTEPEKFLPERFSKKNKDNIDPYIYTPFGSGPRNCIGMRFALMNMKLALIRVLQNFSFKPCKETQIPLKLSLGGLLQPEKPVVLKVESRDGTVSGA

Structure (SMILES) | Ki (CYP3A4 [1]; [4]) | Ki (CYP3A4 [1]; [5]) | IC50 (CYP3A4 [2]) | IC50 (CYP3A4 [3])
COc1cncc(NS(=O)(=O)c2ccccc2C(=O)N(C)CCc2ccccc2)c1 [Example 370, 2-{[(5-methoxypyridin-3-yl)amino]sulfonyl}-N-methyl-N-(2-phenylethyl)benzamide] | 52.9 nM | 19 nM | 8 nM | 12 nM
COc1cncc(NS(=O)(=O)c2ccccc2C(=O)NCCOc2ccccc2)c1 [Example 238, 2-{[(5-methoxypyridin-3-yl)amino]sulfonyl}-N-(2-phenoxyethyl)benzamide] | 230 nM | 18 nM | 31 nM | 17 nM
CN(C)Cc1ccc(CNC(=O)c2ccccc2S(=O)(=O)Nc2cccnc2)cc1 [Example 84, N-{4-[(dimethylamino)methyl]benzyl}-2-[(pyridin-3-ylamino)sulfonyl]benzamide] | > 1000 nM | 464 nM | 28 nM | > 750 nM
CC(C)(CN1CCCC1)NC(=O)c1ccccc1S(=O)(=O)Nc1cccnc1 [Example 3] | 858 nM | > 1000 nM | > 750 nM | > 750 nM
CC1CCN(CC(C)(C)NC(=O)c2ccccc2S(=O)(=O)Nc2cccnc2)CC1 [Example 1, N-[1,1-dimethyl-2-(4-methylpiperidin-1-yl)ethyl]-2-[(pyridin-3-ylamino)sulfonyl]benzamide] | 538 nM | 662 nM | < 3 nM | 390 nM
O=C(c1ccccc1S(=O)(=O)Nc1cccnc1)N1CCc2ccccc2C1 [Example 83, 2-(3,4-dihydroisoquinolin-2(1H)-ylcarbonyl)-N-pyridin-3-ylbenzenesulfonamide] | 127 nM | 12.8 nM | 28 nM | 35 nM
CCCN(CC1CC1)C(=O)c1ccccc1S(=O)(=O)Nc1cccnc1 [Example 54, N-(cyclopropylmethyl)-N-propyl-2-[(pyridin-3-ylamino)sulfonyl]benzamide] | 239 nM |  | 26 nM | 15 nM
CCC(C)(C)NC(=O)c1ccccc1S(=O)(=O)Nc1cccnc1 [Example 38, N-(1,1-dimethylpropyl)-2-[(pyridin-3-ylamino)sulfonyl]benzamide] | 644 nM |  | 84 nM | 68 nM
COc1cncc(NS(=O)(=O)c2ccccc2C(=O)NCc2ccc(C#N)cc2Cl)c1 [Example 203, N-(2-chloro-4-cyanobenzyl)-2-{[(5-methoxypyridin-3-yl)amino]sulfonyl}benzamide] | 101 nM | 25.8 nM | 12 nM | 5 nM
CCCN(CCOC)C(=O)c1ccccc1S(=O)(=O)Nc1cncc(OC)c1 [Example 246, N-(2-methoxyethyl)-2-{[(5-methoxypyridin-3-yl)amino]sulfonyl}-N-propylbenzamide] | 50.3 nM | 18.5 nM | 72 nM | 36 nM
O=C(NCCOc1ccccc1)c1ccccc1S(=O)(=O)Nc1cccnc1 [Example 56, N-(2-phenoxyethyl)-2-[(pyridin-3-ylamino)sulfonyl]benzamide] | 340 nM | 22.4 nM | 62 nM | 48.9 nM
CC1CC(C)CN(C(=O)c2ccccc2S(=O)(=O)Nc2cccnc2)C1 (stereo not drawn) [Example 25, 2-[(3,5-dimethylpiperidin-1-yl)carbonyl]-N-pyridin-3-ylbenzenesulfonamide] | 239 nM |  | 77 nM | 45 nM
CN(c1cccnc1)S(=O)(=O)c1ccccc1C(=O)NCc1cccc(F)c1 [Example 357, N-(3-fluorobenzyl)-2-{[methyl(pyridin-3-yl)amino]sulfonyl}benzamide] | 123 nM | 30.4 nM | 43 nM | 32 nM
COc1cncc(NS(=O)(=O)c2ccccc2C(=O)NC(C)CC(C)C)c1 (stereo not drawn) [Example 204, N-(1,3-dimethylbutyl)-2-{[(5-methoxypyridin-3-yl)amino]sulfonyl}benzamide] | 52.5 nM | 12.6 nM | 12 nM | < 3 nM
COc1cncc(NS(=O)(=O)c2ccccc2C(=O)N2CCCC(C)(C)C2)c1 [Example 391, 2-[(3,3-dimethylpiperidin-1-yl)carbonyl]-N-(5-methoxypyridin-3-yl)benzenesulfonamide] | 317 nM | 6.26 nM | 63 nM | 27 nM
CCOc1cncc(NS(=O)(=O)c2ccccc2C(=O)N(C)Cc2ccc(F)c(F)c2)c1 [Example 289, N-(3,4-difluorobenzyl)-2-{[(5-ethoxypyridin-3-yl)amino]sulfonyl}-N-methylbenzamide] | 5.9 nM | 4.97 nM | 27 nM | 15 nM
CN(c1cccnc1)S(=O)(=O)c1ccccc1C(=O)N1CCCC1 [Example 328, N-methyl-N-pyridin-3-yl-2-(pyrrolidin-1-ylcarbonyl)benzenesulfonamide] | > 1000 nM | 484 nM | > 750 nM | > 750 nM

The remaining lines, values ahead:

Ki (CYP3A4 [1]; [4]) | Ki (CYP3A4 [1]; [5]) | IC50 (CYP3A4 [2]) | IC50 (CYP3A4 [3]) | Structure (SMILES)
> 1000 nM | 106 nM | 97 nM | 70 nM | Cc1ccncc1NS(=O)(=O)c1ccccc1C(=O)NC(C)(C)C [Example 178, N-(tert-butyl)-2-{[(4-methylpyridin-3-yl)amino]sulfonyl}benzamide]
67.3 nM | 5.68 nM | 19 nM | 12 nM | CCCCCN(C)C(=O)c1ccccc1S(=O)(=O)Nc1cnccc1OCC [Example 272, 2-{[(4-ethoxypyridin-3-yl)amino]sulfonyl}-N-methyl-N-pentylbenzamide]
314 nM | 63.7 nM | 58 nM | 45 nM | Cc1ccncc1NS(=O)(=O)c1ccccc1C(=O)NCCC(C)C [Example 179, N-(3-methylbutyl)-2-{[(4-methylpyridin-3-yl)amino]sulfonyl}benzamide]
329 nM |  | 169 nM | 69 nM | CCCCNC(=O)c1ccccc1S(=O)(=O)Nc1cnccc1OC [Example 19, N-butyl-2-{[(4-methoxypyridin-3-yl)amino]sulfonyl}benzamide]
748 nM | 146 nM | 189 nM | 96 nM | CCOCCNC(=O)c1ccccc1S(=O)(=O)Nc1cnccc1OCC [Example 218, N-(2-ethoxyethyl)-2-{[(4-ethoxypyridin-3-yl)amino]sulfonyl}benzamide]
16 nM | 8.9 nM | 12 nM | 11 nM | COc1ccncc1NS(=O)(=O)c1ccccc1C(=O)NCCc1ccccc1OC(F)(F)F [Example 221, 2-{[(4-methoxypyridin-3-yl)amino]sulfonyl}-N-{2-[2-(trifluoromethoxy)phenyl]ethyl} benzamide]
70.6 nM | 3.5 nM | 12 nM | 11 nM | Cc1ccccc1CCNC(=O)c1ccccc1S(=O)(=O)Nc1cnccc1C [Example 177, N-[2-(2-methylphenyl)ethyl]-2-{[(4-methylpyridin-3-yl)amino]sulfonyl}benzamide]
399 nM | 56.8 nM | 56 nM | 29 nM | COc1ccncc1NS(=O)(=O)c1ccccc1C(=O)NCCOc1ccccc1 [Example 224, 2-{[(4-methoxypyridin-3-yl)amino]sulfonyl}-N-(2-phenoxyethyl)benzamide]
